What was measured:
[1] = test system: foxtail, green; assay: Test D postemergence; assay type: in vivo, Setaria viridis; conditions: scale 0 to 100
Summary of the method: (§1)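 Visual 0-100 rating (100 = complete control) against untreated plants, made 14 to 21 days after treatment in a controlled environment. Compounds, formulated with surfactant in non-phytotoxic solvent, were applied either to seeds just sown in silt loam or to 1- to 4-leaf plants (2 to 18 cm) grown in peat-based medium.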

[2] = test system: chamomile; assay: Test D postemergence; assay type: in vivo, Matricaria inodora; conditions: scale 0 to 100
Summary of the method: as §1

[3] = test system: common waterhemp; assay: Test F preemergence; assay type: in vivo, Amaranthus rudis
From the text: (§2) Seeds of plant species selected from corn (Zea mays), soybean (Glycine max), velvetleaf (Abutilon theophrasti), lambsquarters (Chenopodium album), wild poinsettia (Euphorbia heterophylla), pigweed, palmer (palmer pigweed, Amaranthus palmeri), common waterhemp (Amaranthus rudis), surinam grass (Brachiaria decumbens), large crabgrass (Digitaria sanguinalis), crabgrass, Brazil (Brazilian crabgrass, Digitaria horizontalis), fall panicum (Panicum dichotomiflorum), giant foxtail (Setaria faberii), green foxtail (Setaria viridis), goosegrass (Eleusine indica), johnsongrass (Sorghum halepense), common ragweed (Ambrosia elation), barnyardgrass (Echinochloa crus-galli), southern sandbur (Cenchrus echinatus), arrowleaf sida (Sida rhombifolia), Italian ryegrass (Lolium multiflorum), dayflower, VA (Virginia (VA) dayflower, Commelina virginica), field bindweed (Convolvulus arvensis), cocklebur (common cocklebur, Xanthium strumarium), morningglory (Ipomoea coccinea), nightshade (eastern black nightshade, Solanum ptycanthum), kochia (Kochia scoparia), yellow nutsedge (Cyperus esculentus), and hairy beggarticks (Bidens pilosa), were planted into a silt loam soil and treated preemergence with test chemicals formulated in a non-phytotoxic solvent mixture which included a surfactant.
(§3) At the same time, plants from these crop and weed species and also horseweed (Canada horseweed, Conyza canadensis), smartweed (ladysthumb smartweed, Polygonum persicaria), waterhemp_RES1, (ALS & Triazine resistant common waterhemp, Amaranthus rudis), and waterhemp_RES2, (ALS & HPPD resistant common waterhemp, Amaranthus rudis) were treated with postemergence applications of test chemicals formulated in the same manner. Plants ranged in height from 2 to 18 cm for postemergence treatments (1- to 4-leaf stage). Treated plants and controls were maintained in a greenhouse for 14 to 21 days, after which time all species were compared to controls and visually evaluated. Plant response ratings, summarized in Table F, are based on a scale of 0 to 100 where 0 is no effect and 100 is complete control. A dash (-) response means no test result.

[4] = test system: field bindweed; assay: Test F preemergence; assay type: in vivo, Convolvulus arvensis
Summary of the method: (§4)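 Plant response is scored by eye relative to controls on a 0 to 100 scale, where 100 means complete control. Preemergence applications were made to seeded silt loam; postemergence ones to seedlings 2 to 18 cm high. Greenhouse holding time was 14 to 21 days.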

[5] = test system: arrowleaf sida; assay: Test F preemergence; assay type: in vivo, Sida rhombifolia
From the text: as §2, §3

[6] = test system: galium; assay: Test D postemergence; assay type: in vivo, Galium aparine; conditions: scale 0 to 100
From the text: (§5) Seeds of plant species selected from bluegrass (annual bluegrass, Poa annua), blackgrass (Alopecurus myosuroides), canarygrass (littleseed canarygrass, Phalaris minor), chickweed (common chickweed, Stellaria media), galium (catchweed bedstraw, Galium aparine), bromegrass, downy (downy bromegrass, Bromus tectorum), field poppy (Papaver rhoeas), field violet (Viola arvensis), foxtail, green (green foxtail, Setaria viridis), deadnettle (henbit deadnettle, Lamium amplexicaule), ryegrass, Italian (Italian ryegrass, Lolium multiflorum), kochia (Kochia scoparia), lambsquarters (Chenopodium album), oilseed rape (Brassica napus), pigweed (redroot pigweed, Amaranthus retroflexus), chamomile (scentless chamomile, Matricaria inodora), speedwell (bird's-eye speedwell, Veronica persica), barley, spring (spring barley, Hordeum vulgare), wheat, spring (spring wheat, Triticum aestivum), buckwheat, wild (wild buckwheat, Polygonum convolvulus), mustard, wild (wild mustard, Sinapis arvensis), oat, wild (wild oat, Avena fatua), radish, wild (wild radish, Raphanus raphanistrum), windgrass (Apera spica-venti), Russian thistle (Salsola kali), barley, winter (winter barley, Hordeum vulgare), and wheat, winter (winter wheat, Triticum aestivum) were planted into a silt loam soil and treated preemergence with test chemicals formulated in a non-phytotoxic solvent mixture which included a surfactant.
(§6) At the same time, these species were planted in pots containing Redi-Earth® planting medium (Scotts Company, 14111 Scottslawn Road, Marysville, Ohio 43041) comprising spaghnum peat moss, vermiculite, wetting agent and starter nutrients and treated with postemergence applications of the test chemicals formulated in the same manner. Plants ranged in height from 2 to 18 cm (1- to 4-leaf stage). Treated plants and controls were maintained in a controlled growth environment for 14 to 21 days after which time all species were compared to controls and visually evaluated. Plant response ratings, summarized in Table D, are based on a scale of 0 to 100 where 0 is no effect and 100 is complete control. A dash (-) response means no test result.

[7] = test system: field poppy; assay: Test D postemergence; assay type: in vivo, Papaver rhoeas; conditions: scale 0 to 100
Summary of the method: as §1

[8] = test system: wheat, winter; assay: Test D postemergence; assay type: in vivo, Triticum aestivum; conditions: scale 0 to 100
Summary of the method: as §1

[9] = test system: wheat, spring; assay: Test D postemergence; assay type: in vivo, Triticum aestivum; conditions: scale 0 to 100
Summary of the method: as §1

[10] = test system: kochia; assay: Test D preemergence; assay type: in vivo, Kochia scoparia; conditions: scale 0 to 100
Summary of the method: as §1

[11] = test system: buckwheat, wild; assay: Test D postemergence; assay type: in vivo, Polygonum convolvulus; conditions: scale 0 to 100
From the text: as §5, §6

[12] = test system: chickweed; assay: Test D preemergence; assay type: in vivo, Stellaria media; conditions: scale 0 to 100
From the text: as §5, §6

[13] = test system: dayflower, VA; assay: Test F preemergence; assay type: in vivo, Commelina virginica
Summary of the method: as §4

[14] = test system: Italian ryegrass; assay: Test F preemergence; assay type: in vivo, Lolium multiflorum
Summary of the method: as §4

[15] = Preemergence, 31 g ai/ha, scale 0 to 100
[16] = Preemergence, 62 g ai/ha, scale 0 to 100
[17] = Preemergence, 125 g ai/ha, scale 0 to 100
[18] = preemergence, 8 g ai/ha, scale 0 to 100, 100 is complete control
[19] = preemergence, 16 g ai/ha, scale 0 to 100, 100 is complete control

## CCCc1cc(C(=O)NCC(F)(F)F)nn1Cc1ccnc(C(F)(F)F)c1 [Compound 105]
[1]; Postemergence, 31 g ai/ha
  Foxtail, Green plant response rating: 10
[1]; Postemergence, 125 g ai/ha
  Foxtail, Green plant response rating: 70
[1]; Postemergence, 250 g ai/ha
  Foxtail, Green plant response rating: 80
[1]; postemergence, 62 g ai/ha
  Foxtail, Green plant response rating: 65
[2]; Postemergence, 31 g ai/ha
  Chamomile plant response rating: 25
[2]; Postemergence, 125 g ai/ha
  Chamomile plant response rating: 65
[2]; Postemergence, 250 g ai/ha
  Chamomile plant response rating: 80
[2]; postemergence, 62 g ai/ha
  Chamomile plant response rating: 50
[3]; [15]
  Plant response rating, Common Waterhemp: 100
[3]; [16]
  Plant response rating, Common Waterhemp: 100
[3]; [17]
  Plant response rating, Common Waterhemp: 100
[3]; [18]
  Plant response rating, Common Waterhemp: 75
[3]; [19]
  Plant response rating, Common Waterhemp: 100
[4]; [15]
  Plant response rating, Field Bindweed: 75
[4]; [16]
  Plant response rating, Field Bindweed: 40
[4]; [17]
  Plant response rating, Field Bindweed: 100
[4]; [18]
  Plant response rating, Field Bindweed: 0
[4]; [19]
  Plant response rating, Field Bindweed: 10
[5]; [15]
  Plant response rating, Arrowleaf Sida: 0
[5]; [16]
  Plant response rating, Arrowleaf Sida: 0
[5]; [17]
  Plant response rating, Arrowleaf Sida: 15
[5]; [18]
  Plant response rating, Arrowleaf Sida: 0
[5]; [19]
  Plant response rating, Arrowleaf Sida: 0
[6]; Postemergence, 31 g ai/ha
  Galium plant response rating: 70
[6]; Postemergence, 125 g ai/ha
  Galium plant response rating: 80
[6]; Postemergence, 250 g ai/ha
  Galium plant response rating: 85
[6]; postemergence, 62 g ai/ha
  Galium plant response rating: 75
[7]; Postemergence, 31 g ai/ha
  Field Poppy plant response rating: 65
[7]; Postemergence, 125 g ai/ha
  Field Poppy plant response rating: 80
[7]; Postemergence, 250 g ai/ha
  Field Poppy plant response rating: 95
[7]; postemergence, 62 g ai/ha
  Field Poppy plant response rating: 80
[8]; Postemergence, 31 g ai/ha
  Wheat, Winter plant response rating: 10
[8]; Postemergence, 125 g ai/ha
  Wheat, Winter plant response rating: 40
[8]; Postemergence, 250 g ai/ha
  Wheat, Winter plant response rating: 70
[8]; postemergence, 62 g ai/ha
  Wheat, Winter plant response rating: 15
[9]; Postemergence, 31 g ai/ha
  Wheat, Spring plant response rating: 5
[9]; Postemergence, 125 g ai/ha
  Wheat, Spring plant response rating: 20
[9]; Postemergence, 250 g ai/ha
  Wheat, Spring plant response rating: 40
[9]; postemergence, 62 g ai/ha
  Wheat, Spring plant response rating: 10
[10]; 31 g ai/ha
  Plant response rating, Kochia: 95
[10]; 62 g ai/ha
  Plant response rating, Kochia: 100
[10]; 125 g ai/ha
  Plant response rating, Kochia: 100
[10]; 250 g ai/ha
  Plant response rating, Kochia: 100
[11]; Postemergence, 31 g ai/ha
  Buckwheat, Wild plant response rating: 55
[11]; Postemergence, 125 g ai/ha
  Buckwheat, Wild plant response rating: 70
[11]; Postemergence, 250 g ai/ha
  Buckwheat, Wild plant response rating: 80
[11]; postemergence, 62 g ai/ha
  Buckwheat, Wild plant response rating: 65
[12]; 31 g ai/ha
  Plant response rating, Chickweed: 95
[12]; 62 g ai/ha
  Plant response rating, Chickweed: 100
[12]; 125 g ai/ha
  Plant response rating, Chickweed: 100
[12]; 250 g ai/ha
  Plant response rating, Chickweed: 100
[13]; [15]
  Plant response rating, Dayflower, VA: 50
[13]; [16]
  Plant response rating, Dayflower, VA: 80
[13]; [17]
  Plant response rating, Dayflower, VA: 98
[13]; [18]
  Plant response rating, Dayflower, VA: 0
[13]; [19]
  Plant response rating, Dayflower, VA: 40
[14]; [15]
  Plant response rating, Italian Ryegrass: 50
[14]; [16]
  Plant response rating, Italian Ryegrass: 60
[14]; [17]
  Plant response rating, Italian Ryegrass: 80
[14]; [18]
  Plant response rating, Italian Ryegrass: 0
[14]; [19]
  Plant response rating, Italian Ryegrass: 0

From US20150105252A1, “SUBSTITUTED PYRAZOLES AS HERBICIDES” (E I DU PONT DE NEMOURS AND COMPANY, priority 2013, published 2015)
